Measurements as given in paper PMC5795001, “The activity of the C4-dicarboxylic acid chemoreceptor of Pseudomonas aeruginosa is controlled by chemoattractants and antagonists” (Scientific Reports, 2018).
Entries after “also recorded” stand apart in the source; their conditions may differ.

Experiments:
PA2652-LBD [1] = target: T1, PA2652-LBD (Pseudomonas aeruginosa, UniProt Q9I0I6); assay: biochemical; type: binding, Pseudomonas aeruginosa PAO1
T1 construct: The DNA fragment encoding the LBD of PA2652 (Lys^34–Thr^205) was amplified; His-tag (vector-encoded by pET28b(+) via NdeI site); made in house; host or cells: Escherichia coli BL21 (DE3)
T1 sequence (Q9I0I6 34-205): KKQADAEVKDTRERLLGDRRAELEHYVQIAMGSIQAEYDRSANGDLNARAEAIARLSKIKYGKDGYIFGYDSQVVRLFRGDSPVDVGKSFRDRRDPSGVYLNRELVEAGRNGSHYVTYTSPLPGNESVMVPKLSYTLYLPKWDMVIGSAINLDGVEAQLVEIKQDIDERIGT
Experimental: To unambiguously determine ligand binding, we conducted Isothermal Titration Calorimetry (ITC)[40] binding studies with the purified protein.
Experiments were conducted on a VP-microcalorimeter (Microcal, Amherst, MA, USA) at 20 °C. PA2652-LBD was dialyzed overnight against TNG buffer, adjusted to a concentration of 20–35 μM and placed into the sample cell of the instrument. The protein was titrated by the injection of 9.6–14.4 μl aliquots of 1–20 mM ligand solutions that were prepared in TNG buffer (20 mM Tris/HCl, 150 mM NaCl, 10% (v/v) glycerol, pH 6.8) immediately before use. The mean enthalpies measured from the injection of ligands into buffer were subtracted from raw titration data prior to data analysis with the MicroCal version of ORIGIN. Data were fitted with the “One binding site model”.

[2] = test system: Pseudomonas aeruginosa PAO1; assay: Quantitative capillary chemotaxis assay, wild type; type: cell-based
Experimental: Secondly, we assessed the capacity of the ligands identified to induce chemotaxis. To this end, we carried out quantitative capillary chemotaxis assays using the wt strain and PA2652 ligands at concentrations ranging from 10 µM to 100 mM.
(§1) Overnight cultures of P. aeruginosa strains were diluted to an OD660 of 0.05 in MS medium (30 mM Na2HPO4, 20 mM KH2PO4, 25 mM NH4NO3, 1 mM MgSO4) supplemented with 6 mg l^−1 Fe-citrate, trace elements[81] and 15 mM glucose as carbon source, and grown at 37 °C with orbital shaking (200 rpm). At an OD660 of 0.4 ([…]) cultures were centrifuged at 1,700 × g for 5 min and the resulting pellet was washed twice with chemotaxis buffer (50 mM potassium phosphate, […], 0.05% (v/v) glycerol, pH 7.0). Subsequently, the cells were resuspended in the same buffer, adjusted to an OD660 of 0.1 and 230 µl aliquots of the bacterial cultures were placed into 96-well plates. For the quantitative assays, one-microliter capillary tubes (Microcaps, Drummond Scientific, Ref. P1424) were heat-sealed at one end and filled with either the chemotaxis buffer (negative control) or chemotaxis buffer containing the chemoeffectors to test. The capillaries were immersed into the bacterial suspensions at its open end. After 30 min at room temperature, capillaries were removed from the bacterial suspensions, rinsed with sterile water and the content expelled into 1 ml of M9 medium salts. Serial dilutions were plated onto M9 minimal medium (containing the appropriate antibiotics) supplemented with 15 mM glucose as carbon source. The number of colony forming units was determined after overnight incubation. In all cases, data were corrected with the number of cells that swam into buffer containing capillaries.

[3] = test system: Pseudomonas aeruginosa PAO1 cheA1 mutant; assay: Capillary chemotaxis assay, cheA1 mutant; type: cell-based; details: 10 mM L-malic acid
Experimental: A recent bioinformatic study has predicted that PA2652 signals through the che pathway. To verify this prediction we conducted chemotaxis assays to L-malic acid using the wt strain as well as mutants in cheA1 and cheA2, encoding respectively the histidine kinases of the che and che2 pathways.
as §1, with “After 30 min at room temperature, capillaries were removed from the bacterial suspensions, rinsed with sterile water and the content expelled into 1 ml of M9 medium salts. Serial dilutions were plated onto M9 minimal medium (containing the appropriate antibiotics) supplemented with 15 mM glucose as carbon source.” left out, “In all cases, data were corrected with the number of cells that swam into buffer containing capillaries.” left out

PA2652-LBD [4] = target: T1, PA2652-LBD; assay: Sedimentation velocity analytical ultracentrifugation; parameters: species or system Pseudomonas aeruginosa PAO1; details: 1 mM L-malic acid, protein 5-20 µM, 7 °C, PIPES buffer
Experimental: To address this issue, PA2652-LBD was analysed by sedimentation velocity analytical ultracentrifugation (AUC). Initial experiments were conducted using concentrations of ligand-free protein ranging from 5 to 20 µM. […] The molecular weight extracted from the sedimentation coefficient and the shape was of 41 kDa. Considering that the sequence-derived mass of the PA2652-LBD monomer is 21.5 kDa, the observed species is clearly a protein dimer. Since no shift to higher sedimentation coefficients was measured with increasing protein concentrations (data not shown), the dimer species can be considered stable over the protein concentration range analysed. The above experiments were also performed in the presence of saturating concentrations of L-malic acid.
Experiments were performed on a Beckman Coulter Optima XL-A analytical ultracentrifuge (Beckman-Coulter, Palo Alto, CA, USA) equipped with UV-visible absorbance detection system, using an An50Ti 8-hole rotor and 12 mm path-length charcoal-filled epon double-sector centrepieces. […] Light at a wavelength of 234 nm was recorded in the absorbance optics mode. […] Buffer density (ρ = 1.0015 g/mL) and viscosity (η = 0.01449 Poise) at 7 °C were calculated from the buffer composition using SEDNTERP software. […]

## O=C(O)C[C@H](O)C(=O)O [L-malic acid]
PA2652-LBD [1]
  Kd: 23 ± 1 µM
PA2652-LBD [1]; ITC
  TΔS (entropy change of binding): 2.1 ± 1 kcal/mol
PA2652-LBD [1]; YES/NO
  Binding in ITC: YES
[2]; authors' classification from chemotaxis results
  Role of PA2652 ligand (chemoattractant or antagonist): chemoattractants
[2]; wt PAO1, ligands at 10 µM to 100 mM
  Chemotactic response: strong chemotaxis responses
[3]
  Chemotaxis in cheA1 mutant: abolished chemotaxis; also recorded: no response was observed
PA2652-LBD [4]
  Effect of ligand binding on oligomerization state of PA2652-LBD: does not have any significant effects on the oligomerization state
